The values below come from patent publication US20250215013A1, “SUBSTITUTED TRICYCLIC COMPOUNDS AS PARP INHIBITORS AND THE USE THEREOF” (IMPACT THERAPEUTICS (SHANGHAI), INC., priority 2022, published 2025).

Each structure is given as a SMILES string. Like-named read-outs stand apart in the source and are kept apart here.

In assay [1] the target is recombinant poly(ADP-ribose) polymerase 2 (PARP2) (Homo sapiens, UniProt Q9UGN5). The assay can be described thus: PARP2 chemiluminescent assay. Format: biochemical. The following applies: inhibition of PARP2 enzyme activity, chemiluminescence.
For a further assay, the system named is MDA-MB-436 cells. The assay can be described thus: Growth inhibition assay against BRCA mutant human breast cancer MDA-MB-436 cell line (CCK-8). The format is cell-based. Conditions: Homo sapiens, MDA-MB-436, […], proliferation of MDA-MB-436 cells, 7 days.
For assay [2], the target named is T1, recombinant poly(ADP-ribose) polymerase 1 (PARP1) (Homo sapiens (Human), UniProt P09874). The assay can be described thus: biochemical.
A further assay has as its target PDE3A (Homo sapiens (Human), UniProt Q14432). Nature of the assay: PDE3A fluorescence polarization (FP) assay. Format: biochemical. Conditions: PDE3A enzyme activity, FAM-cAMP substrate. (In fluorescence polarisation assays a small probe gives low polarisation when free and higher when bound to something large.)
Assay [3] has as its target T1, recombinant poly(ADP-ribose) polymerase 1 (PARP1).

Chain of recombinant poly(ADP-ribose) polymerase 2 (PARP2) (Q9UGN5 whole entry, looked up): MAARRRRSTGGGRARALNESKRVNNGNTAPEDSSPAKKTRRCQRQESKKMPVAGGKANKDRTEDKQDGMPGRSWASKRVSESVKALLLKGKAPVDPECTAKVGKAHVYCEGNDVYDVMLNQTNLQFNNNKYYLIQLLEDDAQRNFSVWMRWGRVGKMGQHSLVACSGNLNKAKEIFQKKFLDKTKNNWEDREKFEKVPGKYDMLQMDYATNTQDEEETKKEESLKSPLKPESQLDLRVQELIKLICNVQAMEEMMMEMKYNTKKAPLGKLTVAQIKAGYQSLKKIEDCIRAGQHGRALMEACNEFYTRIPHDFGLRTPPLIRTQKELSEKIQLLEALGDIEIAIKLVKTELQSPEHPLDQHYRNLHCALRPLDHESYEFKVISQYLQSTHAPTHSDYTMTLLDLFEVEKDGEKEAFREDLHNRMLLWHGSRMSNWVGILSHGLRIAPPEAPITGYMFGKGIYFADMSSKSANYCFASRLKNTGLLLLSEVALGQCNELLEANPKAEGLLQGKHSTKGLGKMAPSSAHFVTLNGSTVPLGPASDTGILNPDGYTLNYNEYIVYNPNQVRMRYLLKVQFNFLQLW
T1 sequence (P09874 whole entry): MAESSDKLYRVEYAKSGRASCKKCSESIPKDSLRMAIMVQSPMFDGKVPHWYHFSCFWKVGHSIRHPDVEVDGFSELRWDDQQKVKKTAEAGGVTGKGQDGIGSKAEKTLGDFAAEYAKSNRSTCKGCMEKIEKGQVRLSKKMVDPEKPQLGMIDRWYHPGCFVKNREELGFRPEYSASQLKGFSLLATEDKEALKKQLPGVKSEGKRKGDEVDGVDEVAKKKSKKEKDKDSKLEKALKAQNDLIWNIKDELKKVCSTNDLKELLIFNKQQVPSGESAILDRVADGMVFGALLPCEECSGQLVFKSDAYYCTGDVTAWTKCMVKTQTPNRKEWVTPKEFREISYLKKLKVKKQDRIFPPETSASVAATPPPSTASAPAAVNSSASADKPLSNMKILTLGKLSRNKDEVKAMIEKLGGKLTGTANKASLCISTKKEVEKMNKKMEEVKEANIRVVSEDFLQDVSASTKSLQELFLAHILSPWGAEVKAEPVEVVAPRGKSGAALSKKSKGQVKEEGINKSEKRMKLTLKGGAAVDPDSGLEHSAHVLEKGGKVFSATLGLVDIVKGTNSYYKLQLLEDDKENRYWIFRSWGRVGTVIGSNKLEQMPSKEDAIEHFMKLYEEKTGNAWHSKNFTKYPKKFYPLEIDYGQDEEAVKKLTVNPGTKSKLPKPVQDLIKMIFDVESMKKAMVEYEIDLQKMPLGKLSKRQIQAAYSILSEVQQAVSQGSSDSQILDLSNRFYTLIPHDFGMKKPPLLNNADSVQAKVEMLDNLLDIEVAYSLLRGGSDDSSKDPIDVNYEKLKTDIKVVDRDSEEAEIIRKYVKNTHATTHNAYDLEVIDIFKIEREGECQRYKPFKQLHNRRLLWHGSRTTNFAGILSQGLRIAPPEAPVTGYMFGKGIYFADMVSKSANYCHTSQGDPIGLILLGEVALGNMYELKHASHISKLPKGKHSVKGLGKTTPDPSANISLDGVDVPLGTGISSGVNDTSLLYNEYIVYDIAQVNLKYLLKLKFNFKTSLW
Chain of PDE3A (Q14432 whole entry): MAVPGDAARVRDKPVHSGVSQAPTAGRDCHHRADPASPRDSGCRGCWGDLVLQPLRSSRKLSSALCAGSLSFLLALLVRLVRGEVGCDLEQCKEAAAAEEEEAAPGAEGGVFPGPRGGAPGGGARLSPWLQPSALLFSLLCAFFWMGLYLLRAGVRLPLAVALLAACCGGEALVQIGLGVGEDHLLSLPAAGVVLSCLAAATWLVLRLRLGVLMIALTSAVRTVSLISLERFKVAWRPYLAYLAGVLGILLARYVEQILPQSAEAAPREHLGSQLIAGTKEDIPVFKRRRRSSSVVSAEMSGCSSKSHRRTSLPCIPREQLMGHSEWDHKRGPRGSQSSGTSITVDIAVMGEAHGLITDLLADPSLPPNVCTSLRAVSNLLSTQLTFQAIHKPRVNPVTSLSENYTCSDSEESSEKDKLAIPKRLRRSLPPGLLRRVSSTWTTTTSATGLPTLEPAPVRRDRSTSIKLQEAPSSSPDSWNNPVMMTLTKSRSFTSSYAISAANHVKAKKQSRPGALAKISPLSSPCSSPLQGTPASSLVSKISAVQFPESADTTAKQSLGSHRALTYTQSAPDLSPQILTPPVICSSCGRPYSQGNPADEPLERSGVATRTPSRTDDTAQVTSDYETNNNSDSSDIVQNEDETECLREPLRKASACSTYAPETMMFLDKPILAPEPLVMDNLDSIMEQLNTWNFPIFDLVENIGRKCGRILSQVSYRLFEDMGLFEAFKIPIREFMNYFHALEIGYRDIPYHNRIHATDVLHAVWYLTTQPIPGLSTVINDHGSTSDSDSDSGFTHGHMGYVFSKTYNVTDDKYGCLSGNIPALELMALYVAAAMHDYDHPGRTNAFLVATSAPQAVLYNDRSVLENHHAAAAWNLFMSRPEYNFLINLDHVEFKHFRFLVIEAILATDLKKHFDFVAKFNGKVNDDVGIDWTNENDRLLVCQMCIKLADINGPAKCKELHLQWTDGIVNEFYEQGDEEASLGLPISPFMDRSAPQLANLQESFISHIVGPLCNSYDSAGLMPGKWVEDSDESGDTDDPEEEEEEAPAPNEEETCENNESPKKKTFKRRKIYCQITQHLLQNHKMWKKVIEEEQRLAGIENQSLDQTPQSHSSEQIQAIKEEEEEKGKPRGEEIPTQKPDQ
Procedure for PDE3A: A PDE3A fluorescence polarization (FP) assay in a multi-step format was performed using black, round bottom 384-well plates (Corning, 4514). The testing compounds were serially diluted from stock solutions to 11 concentrations with a 3-fold dilution factor using DMSO. Fifty nl of compound dilutions was mixed with 5 μl of reaction buffer (10 mM Tris-HCl, pH 7.2, 10 mM MgCl2, 0.05% NaN3, 0.1% phosphate-free BSA) containing 0.2 μM FAM-cAMP (BPS, 60200) and 2 nM PDE3A (Sino Biological, 11908-H20B1) enzyme, and incubated for 60 min at 25° C. Afterwards, 15 μl binding agent mixture (Molecular Devices, R8124) was added to each well and the plate was incubated for 60 min at 25° C. The plate was loaded to a BMG PHERAstar FSX to read Fluorescence Polarization (FP) values at a setting of: Ex: 485 nm and Em: 520 nm. Emission light intensity with polarizers parallel (Emi) and emission light intensity with polarizers perpendicular (Emi) were recorded. The Polarization (mP) values were calculated using the following formula: mP=(SignalEml−SignalEm⊥)/(SignalEml+SignalEm⊥).
• 1) The inhibition % of a compound dose is calculated as:
[formula] • wherein mPMin and mPMax refer to the polarization readings in the condition of substrate only and substrate+enzyme, respectively. • 2) The IC50 values were calculated from non-linear curve fitting using following regression equation using a commercial curve fitting software GraphPad Prism 9.2.0.
[formula] • wherein, X refers to Log of compound concentration and Y refers to % Inhibition.

As for `CNC(=O)c1ccc(N2CCN(Cc3ccc4c(c3)[nH]c(=O)c3cnn(C)c34)CC2)c(C)n1` [Example 8, 7-((4-(2-methyl-6-(methylcarbamoyl)pyridin-3-yl)piperazin-1-yl)methyl)-1-methyl-1,5-dihydro-4H-pyrazolo[4,3-c]quinolin-4-one], the IC50 in assay [1] was 54.9 nM.

Take `CNC(=O)c1ccc(N2CCN(Cc3cc(F)c4c(c3)[nH]c(=O)c3cscc34)CC2)c(C)n1` [Example 21, 7-((4-(2-methyl-6-(methylcarbamoyl)pyridin-3-yl)piperazin-1-yl)methyl)-9-fluorothieno[3,4-c]quinolin-4(5H)-one]: the half-inhibitory concentration (IC50) in assay [1] worked out at 13.3 nM.

`CNC(=O)c1ccc(N2CCN(Cc3cc(F)c4c(c3)[nH]c(=O)c3sccc34)CC2)c(C)n1` [Example 38, 9-fluoro-7-((4-(2-methyl-6-(methylcarbamoyl)pyridin-3-yl)piperazin-1-yl)methyl)thieno[2,3-c]quinolin-4(5H)-one]: the figures for the 50% inhibitory concentration (IC50) (in assay [1]; in the assay with MDA-MB-436 cells) were 16.9 nM and 3.73 nM, respectively.

Consider `CNC(=O)c1ccc(C2CCN(Cc3ccc4c([nH]c(=O)c5occc54)c3F)CC2)c(F)n1` [Example 109, 7-((4-(2-fluoro-6-(methylcarbamoyl)pyridin-3-yl)piperidin-1-yl)methyl)-6-fluorofuro[2,3-c]quinolin-4(5H)-one], for which the IC50 in assay [1] was found to be 5370 nM; in the assay on MDA-MB-436 cells, 5.09 nM; in assay [2] it was 0.83 nM.

On to `O=C(NCC(F)F)c1ccc(N2CCN(Cc3ccc4c([nH]c(=O)c5occc54)c3F)CC2)c(F)n1` [Example 147, 6-fluoro-7-((4-(2-fluoro-6-(2,2-difluoroethylcarbamoyl)pyridin-3-yl)piperazin-1-yl)methyl)furo[2,3-c]quinolin-4(5H)-one], for which the 50% inhibitory concentration (IC50) in assay [1] turned out to be 2400 nM; with MDA-MB-436 cells, 2 nM; against PDE3A, 10900 nM; in assay [2], 0.56 nM.

On to `CNC(=O)c1ccc(C2=CCN(Cc3ccc4c([nH]c(=O)c5c(C)cnn54)c3F)CC2)cn1` [Example 152, 6-fluoro-3-methyl-7-((6-methylcarbamoyl-3′,6′-dihydro-[3,4′-bipyridin]-1′(2′H)-yl)methyl)pyrazolo[1,5-a]quinoxalin-4(5H)-one], for which the values for the IC50 (in assay [1]; in the assay with MDA-MB-436 cells; against PDE3A) were over 1110 nM, 19.3 nM and over 25000 nM, respectively.

Consider `CNC(=O)c1ccc(C2=CCN(Cc3ccc4c([nH]c(=O)c5c(C)cnn54)c3F)CC2)c(F)n1` [Example 165, 6-fluoro-7-((2-fluoro-6-methylcarbamoyl-3′,6′-dihydro-[3,4′-bipyridin]-1′(2′H)-yl)methyl)-3-methylpyrazolo[1,5-a]quinoxalin-4(5H)-one], for which the half-inhibitory concentration (IC50) in assay [1] is over 3330 nM; in the assay on MDA-MB-436 cells, 2.75 nM; in assay [3], 0.26 nM.

With `CNC(=O)c1ccc(C2=CCN(Cc3ccc4c([nH]c(=O)c5c(F)cnn54)c3F)CC2)c(F)n1` [Example 197, 7-((2-fluoro-6-methylcarbamoyl-3′,6′-dihydro-[3,4′-bipyridin]-1′(2′H)-yl)methyl)-3,6-difluoropyrazolo[1,5-a]quinoxalin-4(5H)-one], the half-inhibitory concentration (IC50) in assay [1] was 774 nM; with MDA-MB-436 cells, 1.19 nM; in assay [3], 0.15 nM.

As usually defined, the IC50 is the midpoint of a concentration-inhibition curve.
